Assay: Particle size measurement of milled suspension (MALVERN MASTERSIZER 3000, in deionized water)
Format: physicochemical
Conditions: mean; suspension of Example 1 milled 20 minutes with 700 micron polystyrene grinding media (Example 2); measured in deionized water
Procedure: The suspension from Example 1 (6-35 w/v %) was milled in a NETZSCH MINICER bead mill using 700 micron polystyrene grinding media (40-85% media load). The mixture was milled at a speed of 3.1-5.5 m/s at 15-25° C. for 20 minutes.
Following milling, particle size was measured, in deionized water, using a MALVERN MASTERSIZER 3000 particle size analyzer. The mean milled paliperidone palmitate particle size distribution of the suspension was D90 less than 20 micron, D50 less than 10 micron, and a D10 less than 3 micron (FIG. 1).

- particle size distribution D10: less than 3 micron
- particle size distribution D50: less than 10 micron
- particle size distribution D90: less than 20 micron
SMILES: CCCCCCCCCCCCCCCC(=O)OC1CCCn2c1nc(C)c(CCN1CCC(c3noc4cc(F)ccc34)CC1)c2=O (stereo not drawn) [paliperidone palmitate, 3-(2-(4-(6-fluoro-3a,7a-dihydrobenzo[d]isoxazol-3-yl)piperidin-1-yl)ethyl)-2-methyl-4-oxo-6,7,8,9-tetrahydro-4H-pyrido[1,2-a]pyrimidin-9-yl palmitate]

Source: patent publication US20190183896A1, “ONE STEP MILLING PROCESS FOR PREPARING MICRONIZED PALIPERIDONE ESTERS” (SpecGX LLC, priority 2017, published 2019)
